The target in assay [1] is T1, histone deacetylase activity (HeLa nuclear extract).
T1 construct: Histone deacetylase activity from crude nuclear extract derived from HeLa cells was used for screening
Description: Histone deacetylase activity (Biomol Fluor de Lys HDAC fluorescent activity assay). Format: biochemical. The settings on record: Fluor de Lys substrate. As for the experimental part:
The ability of compounds to inhibit histone deacetylase activities was measured using the commercially available HDAC fluorescent activity assay from Biomol. In brief, the Fluor de Lys™ substrate, a lysine with an epsilon-amino acetylation, is incubated with the source of histone deacetylase activity (HeLa nuclear extract) in the presence or absence of inhibitor. Deacetylation of the substrate sensitises the substrate to Fluor de Lys™ developer, which generates a fluorophore. Thus, incubation of the substrate with a source of HDAC activity results in an increase in signal that is diminished in the presence of an HDAC inhibitor.
Data are expressed as a percentage of the control, measured in the absence of inhibitor, with background signal being subtracted from all samples, as follows: % activity=[(S^i−B)/(S^o−B)]×100 where S^i is the signal in the presence of substrate, enzyme and inhibitor, S^o is the signal in the presence of substrate, enzyme and the vehicle in which the inhibitor is dissolved, and B is the background signal measured in the absence of enzyme.
(§1) IC50 values were determined by non-linear regression analysis, after fitting the results of eight data points to the equation for sigmoidal dose response with variable slope (% activity against log concentration of Compound), using Graphpad Prism software.
Histone deacetylase activity from crude nuclear extract derived from HeLa cells was used for screening. The preparation, purchased from 4C (Seneffe, Belgium), was prepared from HeLa cells harvested whilst in exponential growth phase. The nuclear extract was prepared according to the methodology described by J. D. Dignam, Nucl. Acid. Res., 1983, 11, 1475-1489, snap frozen in liquid nitrogen and stored at −80° C. The final buffer composition was 20 mM Hepes, 100 mM KCl, 0.2 mM EDTA, 0.5 mM DTT, 0.2 mM PMSF and 20% (v/v) glycerol.

A further assay concerns U937 cells. Description: U937 cell inhibition assay (WST-1 cell viability). The settings on record: Homo sapiens, U-937, 72-96 h. The assay is classed as cell-based. The protocol:
(§2) Cancer cell lines (U937 and HUT) growing in log phase were harvested and seeded at 1000-2000 cells/well (100 μl final volume) into 96-well tissue culture plates. Following 24 h of growth cells were treated with Compound. Plates were then re-incubated for a further 72-96 h before a WST-1 cell viability assay was conducted according to the suppliers (Roche Applied Science) instructions.
(§3) Data were expressed as a percentage inhibition of the control, measured in the absence of inhibitor, as follows: % inhibition=100−[(S^i/S^o)×100] where S^i is the signal in the presence of inhibitor and S^o is the signal in the presence of DMSO.
(§4) Dose response curves were generated from 8 concentrations (top final concentration 10 μM, with 3-fold dilutions), using 6 replicates.
(§5) IC50 values were determined by non-linear regression analysis, after fitting the results to the equation for sigmoidal dose response with variable slope (% activity against log concentration of Compound), using Graphpad Prism software.

Another assay concerns HUT cells. Description: HUT cell inhibition assay (WST-1 cell viability). The assay is classed as cell-based. Conditions: 72-96 h. The protocol: as §2, §3, §4, §5
A further assay deals with HeLa cells. Description: HeLa cell inhibition assay (sulphorhodamine B cell viability). Format: cell-based. The settings on record: Homo sapiens, 72 h, SRB. The protocol: HeLa cells growing in log phase were harvested and seeded at 1000 cells/well (200 μl final volume) into 96-well tissue culture plates. Following 24 h of cell growth cells were treated with Compounds (final concentration of 20 μM). Plates were then re-incubated for a further 72 h before a sulphorhodamine B (SRB) cell viability assay was conducted according to the methodology described by Skehan et al, J. Natl. Canc. Inst., 1990, 82, 1107-1112.
Data were expressed as a percentage inhibition of the control, measured in the absence of inhibitor, as follows:— % inhibition=100−[(S^i/S^o)×100] where S^i is the signal in the presence of inhibitor and S^o is the signal in the presence of DMSO.
as §1

For the compound `O=C(NO)c1ccc(N2CCC(CN[C@H](C(=O)OC3CCCC3)C3CCCCC3)CC2)cc1` [Example 50, Cyclopentyl (2S)-cyclohexyl[({1-[4-(hydroxycarbamoyl)phenyl]piperidin-4-yl}methyl)amino]acetate], the concentration for half-maximal inhibition (IC50) (commonly the concentration that inhibits the measured activity by half) in assay [1] is over 1000 nM; with U937 cells it was over 3300 nM; in the assay with HUT cells, over 3300 nM.

With `O=C(NO)c1cnc(N2CCC(NCc3ccc(CN[C@H](C(=O)OC4CCCC4)c4ccccc4)cc3)CC2)nc1` [Example 32], the IC50 in assay [1] lay in the range of 101 to 1000 nM.

For `O=C(NO)c1cnc(N2CCC(CNCc3ccc(CN[C@@H](CO)C(=O)OC4CCCC4)cc3)CC2)nc1` [Example 44], the concentration for half-maximal inhibition (IC50) was under 330 nM in the assay with U937 cells, under 330 nM in the assay with HUT cells and 331 to 3300 nM in the assay with HeLa cells.

Compound `O=C(NO)c1cnc(N2CCC(NCc3ccc(CN[C@H](C(=O)OC4CCCC4)c4ccccc4)cc3)CC2)nc1` [Example 34] came in with a half-inhibitory concentration (IC50) in assay [1] of under 100 nM.

For `O=C(NO)c1cnc(N2CCC(CNCc3ccc(CN[C@H](C(=O)O)C4CCCCC4)cc3)CC2)nc1` [Example 39, (2S)-cyclohexyl[(4-{[({1-[5-(hydroxycarbamoyl)pyrimidin-2-yl]piperidin-4-yl}methyl)amino]methyl}benzyl)amino]acetic acid], the half-inhibitory concentration (IC50) in assay [1] is under 100 nM.

`CC(C)C[C@H](NC1CCN(c2ncc(C(=O)NO)cn2)CC1)C(=O)O` [Example 2, N-{1-[5-(hydroxycarbamoyl)pyrimidin-2-yl]piperidin-4-yl}-L-leucine] returned a 50% inhibitory concentration (IC50) in assay [1] of 101 to 1000 nM.

Turning to `O=C(NO)c1cnc(N2CCC(CN[C@@H](CO)C(=O)OC3CCCC3)CC2)nc1` [Example 24], the IC50 with U937 cells is under 330 nM; in the assay on HUT cells, under 330 nM; with HeLa cells, 331 to 3300 nM.

Turning to `CC(C)(C)OCC(NCC1C2CN(c3ncc(C(=O)NO)cn3)CC12)C(=O)OC1CCCC1` (stereo not drawn) [Example 12], the 50% inhibitory concentration (IC50) in the assay on U937 cells is under 330 nM; in the assay on HUT cells, 331 to 3300 nM; with HeLa cells it was 331 to 3300 nM.

Consider `O=C(NO)c1cnc(N2CCC(CN[C@H](C(=O)OC3CCCC3)c3cccc4ccccc34)CC2)nc1` [Example 26], for which the 50% inhibitory concentration (IC50) is 331 to 3300 nM with U937 cells, 331 to 3300 nM with HUT cells and over 3300 nM with HeLa cells.

As to `O=C(NO)c1cnc(N2CC3C(CN[C@H](C(=O)O)C4CCCCC4)C3C2)nc1` (stereo partly drawn) [Example 15, (2S)-cyclohexyl[({3-[5-(hydroxycarbamoyl)pyrimidin-2-yl]-3-azabicyclo[3.1.0]hex-6-yl}methyl)amino]acetic acid], in assay [1], the IC50 was in the range of 101 to 1000 nM.

With `O=C(NO)c1ccc(N2CCC(CNCC3CCC(CN[C@H](C(=O)OC4CCCC4)C4CCCCC4)CC3)CC2)cc1` (stereo partly drawn) [Example 54, cyclopentyl (2S)-cyclohexyl{[(4-{[({1-[4-(hydroxycarbamoyl)phenyl]piperidin-4-yl}methyl)amino]methyl}cyclohexyl)methyl]amino}acetate], the values for the IC50 (in assay [1]; with U937 cells; with HUT cells) were over 1000 nM, 331 to 3300 nM and 331 to 3300 nM, respectively.

In assay [1], `O=C(NO)c1cnc(N2CCC(CNCC3CCC(CN[C@H](C(=O)O)C4CCCCC4)CC3)CC2)nc1` (stereo partly drawn) [Example 47, (2S)-cyclohexyl{[(4-{[({1-[5-(hydroxycarbamoyl)pyrimidin-2-yl]piperidin-4-yl}methyl)amino]methyl}cyclohexyl)methyl]amino}acetic acid] came in with a half-inhibitory concentration (IC50) of under 100 nM.

Regarding `O=C(NO)c1cnc(N2CCC(CNCc3ccc(CN[C@H](C(=O)OC4CCCC4)c4ccccc4)cc3)CC2)nc1` [Example 42], the half-maximal inhibitory concentration (IC50) in the assay with U937 cells, in the assay with HUT cells and with HeLa cells was under 330 nM each time.

Take `CC(C)C[C@H](NC1CCN(c2ccc(C(=O)NO)cc2)CC1)C(=O)OC1CCCC1` [Example 48, Cyclopentyl N-{1-[4-(hydroxycarbamoyl)phenyl]piperidin-4-yl}-L-leucinate]: the IC50 in assay [1] is over 1000 nM; with U937 cells, 331 to 3300 nM; with HUT cells, over 3300 nM.

The compound `O=C(NO)c1ccc(N2CCC(CN[C@H](C(=O)O)C3CCCCC3)CC2)cc1` [Example 51, (2S)-cyclohexyl[({1-[4-(hydroxycarbamoyl)phenyl]piperidin-4-yl}methyl)amino]acetic acid] showed an IC50 in assay [1] of over 1000 nM.

In turn, `O=C(NO)c1cnc(N2CCC(CN[C@H](C(=O)O)C3CCCCC3)CC2)nc1` [Example 19, (2S)-cyclohexyl[({1-[5-(hydroxycarbamoyl)pyrimidin-2-yl]piperidin-4-yl}methyl)amino]acetic acid] showed a 50% inhibitory concentration (IC50) in assay [1] of under 100 nM.

As for `O=C(NO)c1cnc(N2CCC(CNCC3CCC(CN[C@H](C(=O)OC4CCCC4)C4CCCCC4)CC3)CC2)nc1` (stereo partly drawn) [Example 46, Cyclopentyl (2S)-cyclohexyl{[(4-{[({1-[5-(hydroxycarbamoyl)pyrimidin-2-yl]piperidin-4-yl}methyl)amino]methyl}cyclohexyl)methyl]amino}acetate], the 50% inhibitory concentration (IC50) in assay [1] lay within 101 to 1000 nM; with U937 cells, 331 to 3300 nM; in the assay on HUT cells, 331 to 3300 nM.

Take `O=C(NO)c1ccc(N2CCC(CNCC3CCC(CN[C@H](C(=O)O)C4CCCCC4)CC3)CC2)cc1` (stereo partly drawn) [Example 55, (2S)-cyclohexyl{[(4-{[({1-[4-(hydroxycarbamoyl)phenyl]piperidin-4-yl}methyl)amino]methyl}cyclohexyl)methyl]amino}acetic acid]: in assay [1], the IC50 was over 1000 nM.

In the case of `O=C(NO)c1cnc(N2CCC(NCc3ccc(CN[C@H](C(=O)OC4CCCC4)c4ccccc4)cc3)CC2)nc1` [Example 30], the IC50 in assay [1] was under 100 nM.

Consider `O=C(NO)c1cnc(N2CCC(CN[C@H](C(=O)OC3CCCC3)c3ccccc3)CC2)nc1` [Example 20], for which the IC50 with U937 cells was under 330 nM; with HUT cells it was 331 to 3300 nM; in the assay on HeLa cells, 331 to 3300 nM.

Turning to `CC(C)C[C@H](NC1CCN(c2ccc(C(=O)NO)cc2)CC1)C(=O)O` [Example 49, N-{1-[4-(hydroxycarbamoyl)phenyl]piperidin-4-yl}-L-leucine], the IC50 in assay [1] is over 1000 nM.

Regarding `CC(C)C[C@H](NCc1ccc(CNCC2CCN(c3ncc(C(=O)NO)cn3)CC2)cc1)C(=O)OC1CCCC1` [Example 36], the concentration for half-maximal inhibition (IC50) in the assay with U937 cells, with HUT cells and with HeLa cells was under 330 nM each time.

In the case of `CC(C)C[C@H](NCC1CCN(c2ncc(C(=O)NO)cn2)CC1)C(=O)OC1CCCC1` [Example 16], the half-maximal inhibitory concentration (IC50) is under 330 nM in the assay with U937 cells, under 330 nM with HUT cells and 331 to 3300 nM in the assay with HeLa cells.

For the compound `CC(C)(C)OC[C@H](NCc1ccc(CNCC2CCN(c3ncc(C(=O)NO)cn3)CC2)cc1)C(=O)OC1CCCC1` [Example 40], the IC50 with U937 cells was under 330 nM; in the assay on HUT cells it was under 330 nM; in the assay with HeLa cells, 331 to 3300 nM.

As to `O=C(NO)c1ccc(N2CCC(CNCc3ccc(CN[C@H](C(=O)OC4CCCC4)C4CCCCC4)cc3)CC2)cc1` [Example 52, Cyclopentyl (2S)-cyclohexyl[(4-{[({1-[4-(hydroxycarbamoyl)phenyl]piperidin-4-yl}methyl)amino]methyl}benzyl)amino]acetate], the half-inhibitory concentration (IC50) in assay [1] is over 1000 nM; with U937 cells, 331 to 3300 nM; with HUT cells, 331 to 3300 nM.

As for `CC(C)(C)OC[C@H](NCC1CCN(c2ncc(C(=O)NO)cn2)CC1)C(=O)OC1CCCC1` [Example 22], the figures for the IC50 in the assay with U937 cells, in the assay on HUT cells and with HeLa cells were under 330 nM, under 330 nM and 331 to 3300 nM, respectively.

In turn, `CC(C)C[C@H](NCc1ccc(CNC2CCN(c3ncc(C(=O)NO)cn3)CC2)cc1)C(=O)O` [Example 28, N-{-4-[({1-[5-(hydroxycarbamoyl)pyrimidin-2-yl]piperidin-4-yl}amino)methyl]benzyl}-L-leucine] returned an IC50 in assay [1] of 101 to 1000 nM.

As for `O=C(NO)c1cnc(N2CCC(N[C@@H](CO)C(=O)OC3CCCC3)CC2)nc1` [Example 9], the IC50 was 331 to 3300 nM in the assay with U937 cells, 331 to 3300 nM in the assay with HUT cells and over 3300 nM in the assay with HeLa cells.

These data come from patent US8962825B2, “Hydroxamates as inhibitors of histone deacetylase” (GlaxoSmithKline Intellectual Property Development Limited, priority 2006, dated 2015).
